# Reference: patent publication US20220259279A1, “ALGINATE-BASED MICROCAPSULATION FOR THE DELIVERY OF ALPHA-CGRP IN CARDIOVASCULAR DISEASES” (University of South Carolina, priority 2019, published 2022)
# Tested on: rat H9C2 cells
# Experiment: trypan-blue cell viability assay
# Format: cell-based
# Settings: 1 μM and 5 μM, 7 days, vs control-untreated cells
# Method: Two different cardiac cell lines, rat H9C2 cells and mouse HL-1 cells, and two different assays, trypan-blue cell viability assay and calcium dye fluorescent based assay, were used to determine the cytotoxicity of prepared alginate-αCGRP microcapsules.
# Trypan-blue cell viability assay: Rat cardiac myoblast cell line, H9C2 cells, was cultured in complete culture medium containing Dulbecco's Modified Eagles' Medium (DMEM) supplemented with 10% fetal bovine serum (FBS), 4.5 gm/liter D-glucose, 1.5 gm/liter sodium bicarbonate, and antibiotic solution of 100 unit/ml penicillin and 100 μg/ml streptomycin. […] The viability of H9C2 cells in presence or absence of alginate-αCGRP microcapsules was determined by trypan blue assay. […] After 7 days of treatment, cells were trypsinized and counted by hemocytometer using trypan-blue exclusion method (Sigma) according to manufacturer's instructions. […]
# Trypan-blue cell viability assay: The rat cardiac H9C2 cells were grown at 37° C. in a humidified incubator with 5% CO2 in complete culture medium (containing DMEM supplemented with 10% fetal bovine serum, FBS, 4.5 gm/liter D-glucose, and 1× penicillin/streptomycin). The viability of H9C2 cells in presence of alginate-α-CGRP microcapsules was determined by trypan-blue assay (Sigma). […] After 7 days of treatment, cells were trypsinized and counted by hemocytometer using trypan-blue exclusion method.
smiles,measurement,value
CC(C)C[C@H](NC(=O)CNC(=O)[C@H](C)NC(=O)[C@H](CC(C)C)NC(=O)[C@H](CCCNC(=N)N)NC(=O)[C@H](Cc1c[nH]cn1)NC(=O)[C@@H](NC(=O)[C@@H](NC(=O)[C@@H]1CSSC[C@H](NC(=O)[C@@H](N)CO)C(=O)N[C@@H](CC(N)=O)C(=O)N[C@@H]([C@@H](C)O)C(=O)N[C@@H](C)C(=O)N[C@@H]([C@@H](C)O)C(=O)N1)C(C)C)[C@@H](C)O)C(=O)N[C@@H](CC(C)C)C(=O)N[C@@H](CO)C(=O)N[C@@H](CCCNC(=N)N)C(=O)N[C@@H](CO)C(=O)NCC(=O)NCC(=O)N[C@H](C(=O)N[C@H](C(=O)N[C@@H](CCCCN)C(=O)N[C@@H](CC(=O)O)C(=O)N[C@@H](CC(N)=O)C(=O)N[C@@H](Cc1ccccc1)C(=O)N[C@H](C(=O)N1CCC[C@H]1C(=O)N[C@H](C(=O)N[C@@H](CC(N)=O)C(=O)N[C@H](C(=O)NCC(=O)N[C@@H](CO)C(=O)N[C@@H](CCC(=O)O)C(=O)N[C@@H](C)C(=O)N[C@@H](Cc1ccccc1)C(N)=O)C(C)C)[C@@H](C)O)C(C)C)C(C)C)C(C)C [α-CGRP-alone],"viability of H9C2 cells (live cells, trypan blue)",not significantly different
